Experimental data taken from US8859589B2 (priority 2008, dated 2014).
Several values for one entry are separate records, joined by “and”; a condition that tells them apart may be missing. Equal entries are not always repeated. Where two headings read alike, the source gives them in different places.

What was measured:
Cowpox Virus-BR = tested on: Cowpox Virus-BR; parameters: species or system BALB/c mice; conditions: mouse, in vivo
[1] = tested on: dUTPase deficient mutant strain of VV; format: cell-based, Vaccinia Virus
[2] = tested on: thymidine kinase deficient mutant strain of VV; format: cell-based, Vaccinia Virus
CV Cowpox Virus = format: cell-based
VV = tested on: VV; parameters: species or system mice; conditions: mouse, in vivo
in vitro [3] = assay: in vitro
[4] = tested on: wild-type VV (Vaccinia Virus); format: cell-based
CV = tested on: CV; parameters: species or system mice; conditions: mouse, in vivo
VV or CV = tested on: VV or CV; parameters: species or system mice; conditions: mouse, in vivo
in vitro [5] = assay: in vitro; remark: listed apart in the source

SMILES | Mortality Number (Cowpox Virus-BR) | Mortality Percent (Cowpox Virus-BR) | antiviral activity against mutant strain of VV [1] | antiviral activity against mutant strain of VV [2] | effective concentration against CV (CV Cowpox Virus) | MDD ± STDEV (Mean Day of Death) (Cowpox Virus-BR) | protection from mortality (VV) | CC50 (in vitro [3]) | effective concentration against wild-type VV [4] | protection from mortality (CV) | reduction in mortality (VV or CV) | CC50 (in vitro [5])
Nc1ccn(C[C@@H](CO)OCP(=O)(O)O)c(=O)n1 [Cidofovir, reference compound] | 0/15 and 0/14 | 0% |  |  |  |  |  |  |  |  |  | 
O=c1[nH]c(=O)n([C@H]2C[C@H](O)[C@@H](CO)S2)cc1I [5-iodo-4′-thio-2′-deoxyuridine] | 0/15 and 0/13 and 1/15 and 2/15 |  | retained its antiviral activity | retained its antiviral activity | less than 1.0 μM | 18.0 and 16.0 ± 2.8 and 14.0 and 14.0 ± 5.7 | completely protected | > 100 µM | less than 1.0 μM | complete protection from mortality | significant reduction in mortality | > 100 µM
